Experimental data: US20250195521A1 (Revolution Medicines, Inc., priority 2020, published 2025)
Where “and” joins values, the source holds several entries; their conditions need not be identical. Equal entries are not always repeated. Where two headings read alike, the source gives them in different places.

Columns and labels:
Type in all cases: biochemical
[1] = molecular target: KRAS G12V binding to BRAF RBD (Homo sapiens (Human), UniProt P01116+P62937, G12V); assay: Ras-Raf disruption/FRET/MOA assay, KRAS G12V
Text: (§1) Note—The following protocol describes a procedure for monitoring disruption of K-Ras G12C(GMP-PNP) binding to BRAF^RBD by a compound of the invention. This protocol may also be executed substituting other Ras proteins or nucleotides.
(§2) The purpose of this biochemical assay was to measure the ability of test compounds to facilitate ternary complex formation between a nucleotide-loaded K-Ras isoform and Cyclophilin A; the resulting ternary complex disrupts binding to a BRAF^RBD construct, inhibiting K-Ras signaling through a RAF effector. Data is reported as IC50 values.
(§3) Compound was present in plate wells as a 10-point 3-fold dilution series starting at a final concentration of 30 μM. After incubation at 25° C. for 3 hours, a mixture of Anti-His Eu—W1024 and anti-GST allophycocyanin was then added to assay sample wells at final concentrations of 10 nM and 50 nM, respectively, and the reaction incubated for an additional 1.5 hours. […] Compounds that facilitate disruption of a K-Ras: RAF complex were identified as those eliciting a decrease in the TR-FRET ratio relative to DMSO control wells.

KRAS G12V = KRAS G12V (Homo sapiens (Human), UniProt P01116+P62937, G12V); assay: Ras-Raf disruption/FRET/MOA assay (BRAF RBD, Cyclophilin A); conditions: read-out: KRAS G12V FRET IC50
In short: (§4)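 TR-FRET readout: anti-His Eu-W1024 (10 nM) and anti-GST allophycocyanin (50 nM) added after 3 h, 25° C compound incubation, then 1.5 h more. Decrease in FRET ratio versus DMSO wells marks Ras:RAF disruption; IC50 reported.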

KRAS G12D = KRAS G12D (Homo sapiens (Human), UniProt P01116+P62937, G12D); assay: as above; conditions: read-out: KRAS G12D FRET IC50
In short: as §4

NRAS G12C = NRAS G12C (Homo sapiens (Human), UniProt P01111+P62937, G12C); assay: as above; conditions: read-out: NRAS G12C FRET data IC50
In short: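 Ras-GMPPNP (12.5 nM), BRAF RBD (50 nM) and 25 μM Cyclophilin A were incubated with compound for 3 h at 25° C, then detected 1.5 h with anti-His Eu and anti-GST APC; IC50 values follow from the reduced TR-FRET ratio.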

KRAS G12S = KRAS G12S (Homo sapiens (Human), UniProt P01116+P62937, G12S); assay: as above; conditions: read-out: KRAS G12S FRET IC50
In short: as §4

KRAS G13C = KRAS G13C (Homo sapiens (Human), UniProt P01116+P62937, G13C); assay: as above; conditions: read-out: KRAS G13C FRET IC50
In short: as §4

KRAS G12C = KRAS G12C (Homo sapiens (Human), UniProt P01116+P62937, G12C); assay: as above; conditions: read-out: KRAS G12C FRET IC50
In short: as §4

[2] = molecular target: K-Ras G12C(GMP-PNP) binding to BRAF RBD (Homo sapiens (Human), UniProt P01116+P62937, G12C); assay: Disruption of BRAF RBD interaction with K-Ras (FRET / MOA assay), K-Ras G12C
In short: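 Cpd 10-pt 3-fold dilution, top 30 μM final; Ras/CypA/BRAF RBD mix 3 h, 25° C. Add anti-His Eu-W1024 10 nM + anti-GST APC 50 nM final, 1.5 h. Readout TR-FRET ratio decrease vs DMSO → IC50.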

KRAS G13D = KRAS G13D (Homo sapiens (Human), UniProt P01116+P62937, G13D); assay: Ras-Raf disruption/FRET/MOA assay (BRAF RBD, Cyclophilin A); conditions: read-out: KRAS G13D FRET data IC50
In short: as §4

[3] = molecular target: KRAS G13C binding to BRAF RBD (Homo sapiens (Human), UniProt P01116+P62937, G13C); assay: Ras-Raf disruption/FRET/MOA assay, KRAS G13C
Text: Disruption of B-Raf Ras-binding Domain (BRAF^RBD) Interaction with K-Ras by Compounds of the Invention (also called a FRET assay or an MOA assay)
as §1, §2
as §3, with “In assay buffer containing 25 mM HEPES pH 7.3, 0.002% Tween20, 0.1% BSA, 100 mM NaCl and 5 mM MgCl2, tagless Cyclophilin A, His6-K-Ras-GMPPNP, and GST-BRAF^RBD were combined in a 384-well assay plate at final concentrations of 25 μM, 12.5 nM and 50 nM, respectively. Compound was” for “Compound was”

[4] = molecular target: KRAS G12S binding to BRAF RBD (Homo sapiens (Human), UniProt P01116+P62937, G12S); assay: Ras-Raf disruption/FRET/MOA assay, KRAS G12S
In short: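 TR-FRET ratio drop relative to DMSO wells marks disruption of the Ras–RAF complex, reported as IC50. Compounds promote a Ras(nucleotide)–cyclophilin A ternary complex that blocks BRAF RBD binding; dosing was 10 points, 3-fold, top 30 μM final, 3 h at 25° C before detection.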

[5] = molecular target: KRAS WT binding to BRAF RBD (Homo sapiens (Human), UniProt P01116+P62937); assay: Ras-Raf disruption/FRET/MOA assay, KRAS WT
In short: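 Compounds (top 30 μM, 3-fold, 10 points) promote Cyclophilin A (25 μM) ternary complex with His6-Ras-GMPPNP (12.5 nM), disrupting GST-BRAF RBD (50 nM) binding; 3 h, 25°C, 25 mM HEPES pH 7.3, 100 mM NaCl, 5 mM MgCl2. Detection reagents (Eu anti-His 10 nM, APC anti-GST 50 nM) added for 1.5 h; IC50 reported.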

Sequence of KRAS G12S binding to BRAF RBD (P01116 other isoform, or with tags, fused parts or gaps G12S): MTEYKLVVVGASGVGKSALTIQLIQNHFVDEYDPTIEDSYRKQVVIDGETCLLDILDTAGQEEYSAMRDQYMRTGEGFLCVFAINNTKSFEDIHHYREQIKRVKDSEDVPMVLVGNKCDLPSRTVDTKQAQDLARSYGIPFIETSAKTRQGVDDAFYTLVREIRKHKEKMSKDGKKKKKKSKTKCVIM
Sequence of KRAS G12S binding to BRAF RBD (P62937 whole entry): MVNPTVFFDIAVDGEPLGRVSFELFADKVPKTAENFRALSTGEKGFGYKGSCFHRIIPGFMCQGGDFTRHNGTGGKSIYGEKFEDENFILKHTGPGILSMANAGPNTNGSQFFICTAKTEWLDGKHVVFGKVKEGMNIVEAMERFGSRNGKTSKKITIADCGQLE
Sequence of KRAS G12S (P01116 other isoform, or with tags, fused parts or gaps G12S): as the sequence (P01116 other isoform, or with tags, fused parts or gaps G12S) above
Sequence of KRAS G12S (P62937 whole entry): as the sequence (P62937 whole entry) above
Sequence of NRAS G12C (P01111 whole entry G12C): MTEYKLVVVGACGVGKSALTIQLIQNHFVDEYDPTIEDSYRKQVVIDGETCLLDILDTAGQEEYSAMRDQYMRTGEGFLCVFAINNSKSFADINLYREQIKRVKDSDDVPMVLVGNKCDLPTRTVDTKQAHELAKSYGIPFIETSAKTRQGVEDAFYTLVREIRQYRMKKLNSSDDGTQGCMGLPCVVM
Sequence of NRAS G12C (P62937 whole entry): as the sequence (P62937 whole entry) above
Sequence of KRAS G12V (P01116 other isoform, or with tags, fused parts or gaps G12V): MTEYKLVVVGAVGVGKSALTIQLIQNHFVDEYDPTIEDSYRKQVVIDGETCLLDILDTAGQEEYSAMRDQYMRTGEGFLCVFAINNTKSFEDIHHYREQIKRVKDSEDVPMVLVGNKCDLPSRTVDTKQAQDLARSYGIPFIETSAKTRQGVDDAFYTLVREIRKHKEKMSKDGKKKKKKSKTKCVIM
Sequence of KRAS G12V (P62937 whole entry): as the sequence (P62937 whole entry) above
Sequence of KRAS G12V binding to BRAF RBD (P01116 other isoform, or with tags, fused parts or gaps G12V): as the sequence (P01116 other isoform, or with tags, fused parts or gaps G12V) above
Sequence of KRAS G12V binding to BRAF RBD (P62937 whole entry): as the sequence (P62937 whole entry) above
Sequence of K-Ras G12C(GMP-PNP) binding to BRAF RBD (P01116 other isoform, or with tags, fused parts or gaps G12C): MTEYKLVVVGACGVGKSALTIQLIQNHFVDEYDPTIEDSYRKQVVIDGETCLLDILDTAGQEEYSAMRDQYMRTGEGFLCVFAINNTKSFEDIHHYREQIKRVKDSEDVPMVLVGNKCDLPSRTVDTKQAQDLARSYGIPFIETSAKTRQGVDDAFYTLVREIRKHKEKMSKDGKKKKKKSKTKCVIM
Sequence of K-Ras G12C(GMP-PNP) binding to BRAF RBD (P62937 whole entry): as the sequence (P62937 whole entry) above
Sequence of KRAS G13C (P01116 other isoform, or with tags, fused parts or gaps G13C): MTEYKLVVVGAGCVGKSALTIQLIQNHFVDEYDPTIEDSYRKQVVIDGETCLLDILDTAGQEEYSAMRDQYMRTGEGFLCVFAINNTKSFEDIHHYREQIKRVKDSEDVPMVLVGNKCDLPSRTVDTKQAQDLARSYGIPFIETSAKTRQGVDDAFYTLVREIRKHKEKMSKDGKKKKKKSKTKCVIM
Sequence of KRAS G13C (P62937 whole entry): as the sequence (P62937 whole entry) above
Sequence of KRAS G12C (P01116-2 other isoform, or with tags, fused parts or gaps G12C): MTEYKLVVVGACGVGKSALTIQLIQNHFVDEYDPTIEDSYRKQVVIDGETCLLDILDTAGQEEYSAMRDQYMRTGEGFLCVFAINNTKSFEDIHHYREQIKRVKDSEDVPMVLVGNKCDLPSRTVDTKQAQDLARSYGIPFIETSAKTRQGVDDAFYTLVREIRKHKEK
Sequence of KRAS G12C (P62937 whole entry): as the sequence (P62937 whole entry) above
Sequence of KRAS G12D (P01116 other isoform, or with tags, fused parts or gaps G12D): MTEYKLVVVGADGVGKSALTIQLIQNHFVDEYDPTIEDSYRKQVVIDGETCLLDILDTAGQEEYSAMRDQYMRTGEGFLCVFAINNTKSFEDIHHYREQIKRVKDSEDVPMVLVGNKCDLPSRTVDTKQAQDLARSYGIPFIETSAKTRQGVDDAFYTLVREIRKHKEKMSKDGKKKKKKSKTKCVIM
Sequence of KRAS G12D (P62937 whole entry): as the sequence (P62937 whole entry) above
Sequence of KRAS G13D (P01116 other isoform, or with tags, fused parts or gaps G13D): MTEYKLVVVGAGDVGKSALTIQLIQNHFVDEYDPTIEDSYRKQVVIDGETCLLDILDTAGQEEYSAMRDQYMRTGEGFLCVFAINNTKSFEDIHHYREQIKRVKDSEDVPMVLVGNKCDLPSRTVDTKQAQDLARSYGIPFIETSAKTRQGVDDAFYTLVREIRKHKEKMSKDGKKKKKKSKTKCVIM
Sequence of KRAS G13D (P62937 whole entry): as the sequence (P62937 whole entry) above
Sequence of KRAS WT binding to BRAF RBD (P01116 other isoform, or with tags, fused parts or gaps): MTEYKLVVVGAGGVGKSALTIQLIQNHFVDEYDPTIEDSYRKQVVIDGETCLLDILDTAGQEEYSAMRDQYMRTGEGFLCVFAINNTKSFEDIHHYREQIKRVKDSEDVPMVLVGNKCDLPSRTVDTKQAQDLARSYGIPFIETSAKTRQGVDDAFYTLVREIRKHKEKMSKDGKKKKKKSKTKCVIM
Sequence of KRAS WT binding to BRAF RBD (P62937 whole entry): as the sequence (P62937 whole entry) above
Sequence of KRAS G13C binding to BRAF RBD (P01116 other isoform, or with tags, fused parts or gaps G13C): as the sequence (P01116 other isoform, or with tags, fused parts or gaps G13C) above
Sequence of KRAS G13C binding to BRAF RBD (P62937 whole entry, the tested form may be a part): as the sequence (P62937 whole entry) above

IC50 [1] [nM] | IC50 (KRAS G12V) | IC50 (KRAS G12D) [nM] | IC50 (NRAS G12C) [nM] | IC50 (KRAS G12S) [nM] | IC50 (KRAS G13C) [nM] | IC50 (KRAS G12C) [nM] | IC50 ([2]; KRAS G12C FRET IC50) [nM] | IC50 (KRAS G13D) | IC50 ([2]; read-out: KRAS G12C FRET IC50) [nM] | IC50 [3] [nM] | IC50 [4] [nM] | IC50 ([1]; read-out: KRAS G12V FRET IC50) [nM] | IC50 [5] [nM] | SMILES
– | 100 to 1000 nM | 1000 to 10000 | 100 to 1000 | 100 to 1000 | 100 to 1000 | 100 to 1000 | – | 100 to 1000 nM | 10 to 100 | – | 10 to 100 | 10 to 100 | 10 to 100 | CCn1c(-c2cccnc2[C@H](C)OC)c2c3cc(ccc31)-c1csc(n1)C[C@H](NC(=O)[C@H](C(C)C)N(C)C(=O)N1CC(N3CCC3)C1)C(=O)N1CCC[C@H](N1)C(=O)OCC(C)(C)C2 [Compound A295]
– | 1000 to 10000 nM | 1000 to 10000 | 1000 to 10000 | 1000 to 10000 | 1000 to 10000 | 1000 to 10000 | – | 1000 to 10000 nM | < 10 | – | 10 to 100 | 10 to 100 | 10 to 100 | CCn1c(-c2cccnc2[C@H](C)OC)c2c3cc(ccc31)-c1csc(n1)C[C@H](NC(=O)[C@H](C(C)C)N(C)C(=O)N1C[C@H](C)N(C)C[C@H]1C)C(=O)N1CCC[C@H](N1)C(=O)OCC(C)(C)C2 [Compound A300]

Continued, molecule first:

SMILES | IC50 [1] [nM] | IC50 (KRAS G12V) | IC50 (KRAS G12D) [nM] | IC50 (NRAS G12C) [nM] | IC50 (KRAS G12S) [nM] | IC50 (KRAS G13C) [nM] | IC50 (KRAS G12C) [nM] | IC50 ([2]; KRAS G12C FRET IC50) [nM] | IC50 (KRAS G13D) | IC50 ([2]; read-out: KRAS G12C FRET IC50) [nM] | IC50 [3] [nM] | IC50 [4] [nM] | IC50 ([1]; read-out: KRAS G12V FRET IC50) [nM] | IC50 [5] [nM]
CCn1c(-c2cccnc2[C@H](C)OC)c2c3cc(ccc31)-c1csc(n1)C[C@H](NC(=O)[C@H](C(C)C)N(C)C(=O)C1COC1)C(=O)N1CCC[C@H](N1)C(=O)OCC(C)(C)C2 [Compound A245] | 10 to 100 | 1000 to 10000 nM | > 10000 | 1000 to 10000 | 1000 to 10000 | 1000 to 10000 | 1000 to 10000 | < 10 | – | – | – | – | – | –
CCn1c(-c2cccnc2[C@H](C)OC)c2c3cc(ccc31)-c1cc(O)cc(c1)C[C@H](NC(=O)[C@H](C(C)C)N(C)C(=O)C1CC(=O)N(C3CC3)C1)C(=O)N1CCC[C@H](N1)C(=O)OCC(C)(C)C2 (stereo partly shown) [Compound A252] | – | 100 to 1000 nM and 10 to 100 nM | 100 to 1000 | 10 to 100 | 10 to 100 | 10 to 100 | 10 to 100 | – | 100 to 1000 nM and 10 to 100 nM | 10 to 100 | < 10 | – | – | –
CCn1c(-c2cnccc2COC)c2c3cc(ccc31)-c1cc(O)cc(c1)C[C@H](NC(=O)[C@H](C(C)C)N(C)C(=O)N1CCNCC1)C(=O)N1CCC[C@H](N1)C(=O)OCC(C)(C)C2 [Compound A255] | – | 100 to 1000 nM | 100 to 1000 | 100 to 1000 | 100 to 1000 | 10 to 100 | 10 to 100 | – | 10 to 100 nM | < 10 | < 10 | 10 to 100 | – | –
